How the values were obtained:
[1] = tested on: anti-CD19 CAR T cells; assay: Cytolytic activity of anti-CD19 CAR T cells co-cultured with K562-CD19 target cells (IncuCyte); assay type: cell-based, human; conditions: E:T 2.5:1, four days, three healthy donors; ibrutinib 0.5-5000 nM; compound of Formula (II) 50 to 5000 nM
Excerpt: (§1) To generate CAR-expressing T cells, T cells were isolated by immunoaffinity-based enrichment from three healthy human donor subjects, and cells from each donor were activated and transduced with a viral vector encoding an anti-CD19 CAR. The CAR contained an anti-CD19 scFv, an Ig-derived spacer, a human CD28-derived transmembrane domain, a human 4-1BB-derived intracellular signaling domain and a human CD3 zeta-derived signaling domain. The nucleic acid construct encoding the CAR also included a truncated EGFR (tEGFR) sequence for use as a transduction marker, separated from the CAR sequence by a self-cleaving T2A sequence.
(§2) CAR-expressing CD4+ and CD8+ cells were mixed 1:1 for each donor, individually, and the pooled cells for each donor assessed in vitro under various conditions.
CAR T cells generated as described above were plated in triplicate on Poly-D-Lysine plates and then co-cultured with ibrutinib-resistant, CD19-expressing target cells (K562 cells transduced to express CD19, K562-CD19) at an effector to target (E:T) ratio of 2.5:1. The targets cells were labeled with NucLight Red (NLR) to permit tracking of target cells by microscopy. […] Cytolytic activity was assessed by measuring the loss of viable target cells over a period of four days, as determined by red fluorescent signal (using the IncuCyte® Live Cell Analysis System, Essen Bioscience).

[2] = tested on: anti-CD19 CAR T cells; assay: Expression of CAR-T cell surface markers over 4 days after stimulation with irradiated K562-CD19 (flow cytometry); assay type: cell-based, human; conditions: four days after initial stimulation
Excerpt: as §1, §2
CAR-T cells generated as described above were plated at 100,000 cells/well on 96 well Poly-D-Lysine coated plates. Irradiated K562-CD19 target cells were added at an effector to target ratio of 2.5:1.

[3] = tested on: anti-CD19 CAR-T cells; assay: Serial restimulation assay, expansion of anti-CD19 CAR-T cells; assay type: cell-based, human
Procedure: The ability of cells to expand ex vivo following repeated stimulations in some aspects can indicate capacity of CAR-T cells to persist (e.g., following initial activation) and/or is indicative of function and/or fitness in vivo (Zhao et al. (2015) Cancer Cell, 28:415-28). Anti-CD19 CAR-T cells generated as described above were plated in triplicate at 100,000 cells/well on 96 well Poly-D-Lysine coated plates, and irradiated target cells (K562-CD19) were added at an effector to target ratio of 2.5:1. […] A total of 7 rounds of stimulation during a 25 day culture period were carried out.
For each round of stimulation, the fold change in cell number and the number of doublings was determined. […] Expansion kinetics were similar in all treatment groups after three rounds of stimulation (day 11), as observed by fold change and number of population doublings. […] The cells derived from the two donors in which these differences were observed, generally, as compared to those derived from the other donor, performed less well in the serial restimulation assay in the absence of either inhibitor.

[4] = tested on: anti-CD19 CAR T cells; assay: TH1 phenotype of anti-CD19 CAR T cells in serial restimulation assay (flow cytometry); assay type: cell-based, human; conditions: 18-day serial stimulation, three donors; 500 nM ibrutinib (P<0.01); compound of Formula (II) treatment
Procedure: A serial restimulation assay was performed as described above and cells were harvested at various times and analyzed by flow cytometry to assess percentage of TH1-phenotype (assessed as CD4+CXCR3+CRTH2-) T cells or TH2-phenotype (assessed as CD4+CXCR3-CRTH2+).

[5] = tested on: CAR T cells; assay: Activation and memory markers of CAR T cells from the serial stimulation assay (flow cytometry); assay type: cell-based, human; conditions: days 0, 11, 18 and 21 of serial stimulation
[6] = tested on: CAR+ T cells harvested from bone marrow; assay: Ex vivo immunophenotyping (t-SNE) of CAR+ T cells harvested from bone marrow; assay type: in vivo, NSG mice; conditions: day 12 post CAR T transfer
Procedure: NSG mice described in Example 2 were intravenously injected on day 0 with 5×10^5 Nalm-6 cells expressing firefly luciferase. […] A bridging experiment confirmed that administration of ibrutinib by drinking water was equivalent to oral gavage administration (data not shown). To permit assessment of the effect of a combination therapy with the inhibitor, a suboptimal dose of anti-CD19 CAR T cells was i.v. injected into the mice at 5×10^5/mouse at day 5. As a control, mice were administered the vehicle control without administration of the CAR-T cells or inhibitor.
Cells were assessed for surface markers CD44, CD45RA, CD62L, CD154, CXCR3, CXCR4, PD-1 by flow cytometry and T-distributed stochastic neighbor embedding (t-SNE) high dimensional analysis was performed using FlowJo software. […] Using multivariate t-SNE FACS analysis based on pooled analysis from three mice per group, 4 distinct population clusters were identified (FIG. 8B). FACs histograms showing the individual expression profiles of CD4, CD8, CD62L, CD45RA, CD44 and CXCR3 from the 4 gated t-SNE in FIG. 8A overlaid on the expression of the total population (shaded) is shown in FIG. 8C. […] Statistically significant differences are indicated as […] (*), P<0.01 (**), P<0.001 (***), P<0.0001 (****).

[7] = biological target: T1, Itk (Homo sapiens, UniProt Q08881); conditions: reported, Byrd et al. 2016; cited from earlier work
T1 sequence (Q08881 1-620): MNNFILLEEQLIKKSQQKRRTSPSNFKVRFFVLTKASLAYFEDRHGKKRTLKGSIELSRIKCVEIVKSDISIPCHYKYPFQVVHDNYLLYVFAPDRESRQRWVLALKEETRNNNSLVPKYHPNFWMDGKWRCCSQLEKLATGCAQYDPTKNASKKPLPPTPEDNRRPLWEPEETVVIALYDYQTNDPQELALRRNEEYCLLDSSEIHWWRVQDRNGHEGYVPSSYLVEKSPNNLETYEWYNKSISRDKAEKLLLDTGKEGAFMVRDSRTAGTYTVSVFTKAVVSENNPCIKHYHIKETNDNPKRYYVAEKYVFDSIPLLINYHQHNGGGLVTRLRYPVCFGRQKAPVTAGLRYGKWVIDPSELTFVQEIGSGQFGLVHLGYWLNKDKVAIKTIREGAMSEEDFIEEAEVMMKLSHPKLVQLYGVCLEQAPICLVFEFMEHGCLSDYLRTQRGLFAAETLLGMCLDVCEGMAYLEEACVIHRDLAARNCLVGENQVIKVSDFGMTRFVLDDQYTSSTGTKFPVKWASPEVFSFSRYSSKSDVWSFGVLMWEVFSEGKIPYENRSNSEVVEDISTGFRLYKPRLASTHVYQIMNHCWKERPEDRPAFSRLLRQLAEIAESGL

SMILES: CC#CC(=O)N1CCC[C@H]1c1nc(-c2ccc(C(=O)Nc3ccccn3)cc2)c2c(N)nccn12 [compound of Formula (II)]
- cytolytic function of anti-CD19 CAR T cells against K562-CD19 target cells, normalized to untreated control [1]: no negative impact on cytolytic function
- phenotype of cells as central (TCM) or effector (TEM) memory subsets by CCR7 and CD45RA [2]: did not affect the phenotype of cells as central (TCM) or effector (TEM) memory subsets
- expansion as measured by population doublings following multiple rounds of restimulation ([3]; by day 18, CAR+ T cells from two of the three donors, each concentration assessed): observed to be enhanced
- cell counts after five rounds of stimulation (day 18) ([3]; donor 3, highest concentration tested): Non-significant, increased cell counts
- percentage of TH1 cells [4]: no significant effects were observed
- additional CAR T activation or memory markers (CD25, CD38, CD39, CD45RO, CD62L, CD69, CD107a, PD-1) [5]: No significant effects
- population 2 (CD8+CD44hiCXCR3hiCD45RAloCD62Lhi) and population 4 (CD4+CD44hiCXCR3intCD45RAhiCD62Lhi) compared to control mice [6]: An increase
- population 2 as share of CAR-T cells ([6]; pooled from three mice): 29.2%
- population 4 as share of CAR-T cells ([6]; pooled from three mice): 8.4%
- lower affinity for ITK compared with ibrutinib [7]: > 200 times
